The record followed here is patent publication US20250122225A1, “MASP-2 INHIBITORS AND METHODS OF USE” (Omeros Corporation, priority 2023, published 2025).

The term Ki denotes the equilibrium dissociation constant of an inhibitor or competing ligand from its target. Read a high Ki as weaker binding.

For one assay, the target named is T1, MASP-2 (CCP1-CCP2-SP) (Homo sapiens, UniProt O00187).
T1 construct: 15 μL of Enzyme MASP-2 (CCP1-CCP2-SP) in Assay Buffer
Put plainly: Enzymatic assay for MASP-2 inhibitory activity (fluorogenic substrate). It is filed as biochemical. In outline: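 MASP-2 (CCP1-CCP2-SP) cleaved a fluorogenic substrate based on the C2 cleavage site in 20 mM HEPES pH 7.4, 140 mM NaCl, 0.1% Tween 20 at room temperature. After 20 min the reaction was stopped with 0.1 M acetic acid and fluorescence read. % activity was normalized to DMSO-only and no-enzyme controls; IC50 taken as Ki.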

A further assay concerns the target T2, human α-thrombin (Homo sapiens, UniProt P00734).
T2 construct: enzyme (human α-thrombin (BioPharm® Lab.)) in assay buffer; purchased BioPharm® Lab
Put plainly: Enzymatic assay for thrombin (fluorogenic peptide substrate Boc-VPR-AMC). It is filed as biochemical. In outline: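 Human α-thrombin was run with the fluorogenic substrate Boc-VPR-AMC in 20 mM Hepes pH 7.4, 140 mM NaCl, 0.1% Tween 20 at room temperature for 20 min, then stopped with 0.1 M acetic acid. % activity was normalized to DMSO and no-enzyme controls. Under linear conditions IC50 equalled Ki, except for tight-binding inhibitors.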

Each structure is given as a SMILES string. Structures can show the parent of a compound that is named as a salt.

T1 sequence (O00187 445-686 limits assumed): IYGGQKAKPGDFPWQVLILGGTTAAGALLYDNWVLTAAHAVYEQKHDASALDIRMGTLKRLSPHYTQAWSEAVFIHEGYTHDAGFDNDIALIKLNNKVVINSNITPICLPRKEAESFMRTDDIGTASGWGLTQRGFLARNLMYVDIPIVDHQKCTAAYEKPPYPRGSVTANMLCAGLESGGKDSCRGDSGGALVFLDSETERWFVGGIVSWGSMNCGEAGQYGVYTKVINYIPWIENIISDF
T1 sequence (O00187 287-444 partner limits assumed): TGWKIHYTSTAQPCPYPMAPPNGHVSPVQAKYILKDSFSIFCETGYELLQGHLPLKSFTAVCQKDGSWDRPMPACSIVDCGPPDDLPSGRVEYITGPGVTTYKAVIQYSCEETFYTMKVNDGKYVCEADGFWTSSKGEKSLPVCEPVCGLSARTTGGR

Regarding `Cc1cc2[nH]c(CNC(=O)[C@@H]3CCc4cnc(NCc5cccc(C)c5F)c(=O)n43)cc2cn1` [Compound 61, (S)-3-((2-fluoro-3-methylbenzyl)amino)-N-((6-methyl-1H-pyrrolo[3,2-c]pyridin-2-yl)methyl)-4-oxo-4,6,7,8-tetrahydropyrrolo[1,2-a]pyrazine-6-carboxamide], the Ki at MASP-2 (CCP1-CCP2-SP) was less than 500 nM; at human α-thrombin, 2500 to 10000 nM.
The matching figures for `Cc1cccc(CNc2ncc3n(c2=O)[C@H](C(=O)NCc2ccc(N)nc2C)CC3)c1F` [Compound 62, (S)-N-((6-amino-2-methylpyridin-3-yl)methyl)-3-((2-fluoro-3-methylbenzyl)amino)-4-oxo-4,6,7,8-tetrahydropyrrolo[1,2-a]pyrazine-6-carboxamide]: less than 500 nM and less than 500 nM.
Consider `Cc1ccc(F)cc1CNc1ncc2n(c1=O)[C@H](C(=O)NCc1cc3cnccc3[nH]1)CC2` [Compound 63, (S)-N-((1H-pyrrolo[3,2-c]pyridin-2-yl)methyl)-3-((5-fluoro-2-methylbenzyl)amino)-4-oxo-4,6,7,8-tetrahydropyrrolo[1,2-a]pyrazine-6-carboxamide], for which the figures for the Ki at MASP-2 (CCP1-CCP2-SP) and at human α-thrombin were less than 500 nM and 500 to 2500 nM, respectively.
The matching figures for `Cc1cc2[nH]c(CNC(=O)[C@@H]3CCc4cnc(NCc5cc(F)ccc5C)c(=O)n43)cc2cn1` [Compound 64, (S)-3-((5-fluoro-2-methylbenzyl)amino)-N-((6-methyl-1H-pyrrolo[3,2-c]pyridin-2-yl)methyl)-4-oxo-4,6,7,8-tetrahydropyrrolo[1,2-a]pyrazine-6-carboxamide]: less than 500 nM and 10000 to 25000 nM.
As to `Cc1ccc(F)cc1CNc1ncc2n(c1=O)[C@H](C(=O)NCc1ccc(N)nc1C)CC2` [Compound 65, (S)-N-((6-amino-2-methylpyridin-3-yl)methyl)-3-((5-fluoro-2-methylbenzyl)amino)-4-oxo-4,6,7,8-tetrahydropyrrolo[1,2-a]pyrazine-6-carboxamide], the Ki at MASP-2 (CCP1-CCP2-SP) and on human α-thrombin was less than 500 nM each time.
Take `Cc1nc(N)ccc1CNC(=O)[C@@H]1CCc2cnc(NCc3cccc(C(C)(C)O)c3)c(=O)n21` [Compound 66, (S)-N-((6-amino-2-methylpyridin-3-yl)methyl)-3-((3-(2-hydroxypropan-2-yl)benzyl)amino)-4-oxo-4,6,7,8-tetrahydropyrrolo[1,2-a]pyrazine-6-carboxamide]: the Ki at MASP-2 (CCP1-CCP2-SP) and on human α-thrombin was less than 500 nM in each case.
Regarding `CC(C)(O)c1cccc(CNc2ncc3n(c2=O)[C@H](C(=O)NCc2cc4cnccc4[nH]2)CC3)c1` [Compound 67, (S)-N-((1H-pyrrolo[3,2-c]pyridin-2-yl)methyl)-3-((3-(2-hydroxypropan-2-yl)benzyl)amino)-4-oxo-4,6,7,8-tetrahydropyrrolo[1,2-a]pyrazine-6-carboxamide], the Ki at MASP-2 (CCP1-CCP2-SP) was less than 500 nM; on human α-thrombin, 500 to 2500 nM.
In the case of `Cc1cc2[nH]c(CNC(=O)[C@@H]3CCc4cnc(NCc5cccc(C(C)(C)O)c5)c(=O)n43)cc2cn1` [Compound 68, (S)-3-((3-(2-hydroxypropan-2-yl)benzyl)amino)-N-((6-methyl-1H-pyrrolo[3,2-c]pyridin-2-yl)methyl)-4-oxo-4,6,7,8-tetrahydropyrrolo[1,2-a]pyrazine-6-carboxamide], the figures for the Ki at MASP-2 (CCP1-CCP2-SP) and at human α-thrombin were less than 500 nM and more than 25000 nM, respectively.
The matching figures for `Cc1cc(F)cc(CNc2ncc3n(c2=O)[C@H](C(=O)NCc2cc4cnccc4[nH]2)CC3)c1` [Compound 70, (S)-N-((1H-pyrrolo[3,2-c]pyridin-2-yl)methyl)-3-((3-fluoro-5-methylbenzyl)amino)-4-oxo-4,6,7,8-tetrahydropyrrolo[1,2-a]pyrazine-6-carboxamide]: less than 500 nM and 500 to 2500 nM.
As to `Cc1cc(F)cc(CNc2ncc3n(c2=O)[C@H](C(=O)NCc2ccc(N)nc2)CC3)c1` [Compound 72, (S)-N-((6-aminopyridin-3-yl)methyl)-3-((3-fluoro-5-methylbenzyl)amino)-4-oxo-4,6,7,8-tetrahydropyrrolo[1,2-a]pyrazine-6-carboxamide], the Ki on MASP-2 (CCP1-CCP2-SP) and at human α-thrombin was less than 500 nM throughout.
With `Cc1cccc([C@@H](C)Nc2ncc3n(c2=O)[C@H](C(=O)NCc2cc4cnccc4[nH]2)CC3)c1` [Compound 73, (S)-N-((1H-pyrrolo[3,2-c]pyridin-2-yl)methyl)-4-oxo-3-(((R)-1-(m-tolyl)ethyl)amino)-4,6,7,8-tetrahydropyrrolo[1,2-a]pyrazine-6-carboxamide], the inhibitory constant (Ki) was less than 500 nM on MASP-2 (CCP1-CCP2-SP) and 10000 to 25000 nM at human α-thrombin.
Turning to `Cc1cccc([C@H](C)Nc2ncc3n(c2=O)[C@H](C(=O)NCc2cc4cnccc4[nH]2)CC3)c1` [Compound 74, (S)-N-((1H-pyrrolo[3,2-c]pyridin-2-yl)methyl)-4-oxo-3-(((S)-1-(m-tolyl)ethyl)amino)-4,6,7,8-tetrahydropyrrolo[1,2-a]pyrazine-6-carboxamide], the Ki on MASP-2 (CCP1-CCP2-SP) is less than 500 nM; on human α-thrombin, 500 to 2500 nM.
For the compound `Cc1cc(C)cc([C@@H](CO)Nc2ncc3n(c2=O)[C@H](C(=O)NCc2ccc(N)nc2C)CC3)c1` [Compound 76, (S)-N-((6-amino-2-methylpyridin-3-yl)methyl)-3-(((S)-1-(3,5-dimethylphenyl)-2-hydroxyethyl)amino)-4-oxo-4,6,7,8-tetrahydropyrrolo[1,2-a]pyrazine-6-carboxamide], the inhibition constant (Ki) at MASP-2 (CCP1-CCP2-SP) and at human α-thrombin was less than 500 nM each time.
As to `Cc1ccc(F)c(CNc2ncc3n(c2=O)[C@H](C(=O)NCc2ccc(N)nc2C)CC3)c1` [Compound 77, (S)-N-((6-amino-2-methylpyridin-3-yl)methyl)-3-((2-fluoro-5-methylbenzyl)amino)-4-oxo-4,6,7,8-tetrahydropyrrolo[1,2-a]pyrazine-6-carboxamide], the inhibition constant (Ki) at MASP-2 (CCP1-CCP2-SP) and on human α-thrombin was less than 500 nM throughout.
On to `Cc1ccc(F)c(CNc2ncc3n(c2=O)[C@H](C(=O)NCc2ccc(N)nc2)CC3)c1` [Compound 79, (S)-N-((6-aminopyridin-3-yl)methyl)-3-((2-fluoro-5-methylbenzyl)amino)-4-oxo-4,6,7,8-tetrahydropyrrolo[1,2-a]pyrazine-6-carboxamide], for which the inhibition constant Ki on MASP-2 (CCP1-CCP2-SP) and at human α-thrombin was less than 500 nM throughout.
In the case of `Cc1ccc(F)c(CNc2ncc3n(c2=O)[C@H](C(=O)NCc2cc4cnc(C)cc4[nH]2)CC3)c1` [Compound 80, (S)-3-((2-fluoro-5-methylbenzyl)amino)-N-((6-methyl-1H-pyrrolo[3,2-c]pyridin-2-yl)methyl)-4-oxo-4,6,7,8-tetrahydropyrrolo[1,2-a]pyrazine-6-carboxamide], the Ki at MASP-2 (CCP1-CCP2-SP) was less than 500 nM; on human α-thrombin it was 10000 to 25000 nM.
`Cc1ccccc1[C@@H](C)Nc1ncc2n(c1=O)[C@H](C(=O)NCc1cc3cnccc3[nH]1)CC2` [Compound 81, (S)-N-((1H-pyrrolo[3,2-c]pyridin-2-yl)methyl)-4-oxo-3-(((R)-1-(0-tolyl)ethyl)amino)-4,6,7,8-tetrahydropyrrolo[1,2-a]pyrazine-6-carboxamide]: the inhibitory constant (Ki) on MASP-2 (CCP1-CCP2-SP) and on human α-thrombin was less than 500 nM in each case.
In the case of `Cc1ccccc1[C@@H](C)Nc1ncc2n(c1=O)[C@H](C(=O)NCc1ccc(N)nc1C)CC2` [Compound 82, (S)-N-((6-amino-2-methylpyridin-3-yl)methyl)-4-oxo-3-(((R)-1-(o-tolyl)ethyl)amino)-4,6,7,8-tetrahydropyrrolo[1,2-a]pyrazine-6-carboxamide], the Ki at MASP-2 (CCP1-CCP2-SP) and on human α-thrombin was less than 500 nM in each case.
`Cc1ccccc1[C@H](C)Nc1ncc2n(c1=O)[C@H](C(=O)NCc1cc3cnccc3[nH]1)CC2` [Compound 83, (S)-N-((1H-pyrrolo[3,2-c]pyridin-2-yl)methyl)-4-oxo-3-(((S)-1-(o-tolyl)ethyl)amino)-4,6,7,8-tetrahydropyrrolo[1,2-a]pyrazine-6-carboxamide]: the Ki on MASP-2 (CCP1-CCP2-SP) was less than 500 nM; at human α-thrombin it was 2500 to 10000 nM.
The matching figures for `O=C(NCc1cc2cnccc2[nH]1)[C@@H]1CCc2cnc(N3CC(c4ccccc4)C3)c(=O)n21` [Compound 84, (S)-N-((1H-pyrrolo[3,2-c]pyridin-2-yl)methyl)-4-oxo-3-(3-phenylazetidin-1-yl)-4,6,7,8-tetrahydropyrrolo[1,2-a]pyrazine-6-carboxamide]: 500 to 2500 nM and 10000 to 25000 nM.
With `Cc1cc(C)cc(CNc2ncc3n(c2=O)[C@H](C(=O)NCc2ccncc2)CC3)c1` [Compound 86, (S)-3-((3,5-dimethylbenzyl)amino)-4-oxo-N-(pyridin-4-ylmethyl)-4,6,7,8-tetrahydropyrrolo[1,2-a]pyrazine-6-carboxamide], the Ki on MASP-2 (CCP1-CCP2-SP) was 500 to 2500 nM; at human α-thrombin, more than 25000 nM.
Take `Cc1cc(C)cc(CNc2ncc3n(c2=O)[C@H](C(=O)NCc2ccc(N)nc2)CC3)c1` [Compound 87, (S)-N-((6-aminopyridin-3-yl)methyl)-3-((3,5-dimethylbenzyl)amino)-4-oxo-4,6,7,8-tetrahydropyrrolo[1,2-a]pyrazine-6-carboxamide]: the Ki on MASP-2 (CCP1-CCP2-SP) and at human α-thrombin was less than 500 nM in each case.
In the case of `Cc1cc(C)cc(CNc2nc(Cl)c3n(c2=O)[C@H](C(=O)NCc2cccnc2C)CC3)c1` [Compound 89, trifluoroacetate], the Ki on MASP-2 (CCP1-CCP2-SP) was 2500 to 10000 nM; on human α-thrombin, more than 25000 nM.
Regarding `Cc1cccc([C@@H](C)Nc2ncc3n(c2=O)[C@H](C(=O)NCc2cc4c(s2)CNC4)CC3)c1` [Compound 90, (S)—N-((5,6-dihydro-4H-thieno[2,3-c]pyrrol-2-yl)methyl)-4-oxo-3-(((R)-1-(m-tolyl)ethyl)amino)-4,6,7,8-tetrahydropyrrolo[1,2-a]pyrazine-6-carboxamide], the results for the Ki at MASP-2 (CCP1-CCP2-SP) and on human α-thrombin were less than 500 nM and 2500 to 10000 nM, respectively.
